From PMC4413848, “Antibacterial activity of alkyl gallates is a combination of direct targeting of FtsZ and permeabilization of bacterial membranes” (Frontiers in Microbiology, 2015)

Tests used:
FtsZ [1] = biological target: T1, FtsZ (Bacillus subtilis, UniProt P17865); experiment: malachite green GTPase assay at […] with Triton X-100 (Kd could not be calculated); format: biochemical
T1 sequence (P17865 1-382): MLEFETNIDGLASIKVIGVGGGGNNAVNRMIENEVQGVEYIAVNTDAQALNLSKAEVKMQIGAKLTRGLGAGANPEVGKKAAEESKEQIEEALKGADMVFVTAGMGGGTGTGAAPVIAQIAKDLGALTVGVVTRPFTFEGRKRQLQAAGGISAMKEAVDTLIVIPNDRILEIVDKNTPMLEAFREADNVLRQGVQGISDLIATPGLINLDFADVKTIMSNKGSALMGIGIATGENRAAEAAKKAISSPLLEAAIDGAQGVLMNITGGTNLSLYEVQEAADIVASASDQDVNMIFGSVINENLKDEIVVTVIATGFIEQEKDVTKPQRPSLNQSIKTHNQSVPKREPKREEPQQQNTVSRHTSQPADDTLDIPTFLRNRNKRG

FtsZ [2] = biological target: T1, FtsZ; experiment: fluorescence titration with purified FtsZ (poorer fit, R^[…] = […]); also GTPase inhibition and sedimentation; format: binding
FtsZ [3] = biological target: T1, FtsZ; experiment: fluorescence titration (intrinsic alkyl gallate fluorescence) with purified FtsZ; also GTPase inhibition and sedimentation; format: binding

Structure (SMILES)	Kd (FtsZ [3]) [nM]	also measured
CCCCCCOC(=O)c1cc(O)c(O)c(O)c1 [compound 9, Hexyl gallate]	–	malachite green GTPase assay at 50 μg/mL with Triton X-100 (Kd could not be calc) (FtsZ [1]): All of the compounds showed similar levels of inhibition of the GTPase activity of FtsZ.
CCCCCOC(=O)c1cc(O)c(O)c(O)c1 [compound 8, Pentyl gallate]	–	Kd (FtsZ [2]): ~3100 nM
CCCCCCCCOC(=O)c1cc(O)c(O)c(O)c1 [compound 11, Octyl gallate]	840 ± 220	–
CCCCCCCOC(=O)c1cc(O)c(O)c(O)c1 [compound 10, Heptyl gallate]	80 ± 30	–
